Laboratory results as given in patent US5338830A, “Biologically active peptide derived from chicken (chicken CNP)” (Suntory Limited, priority 1990, dated 1994).
“Also recorded” adds a separate entry of the source. Like-named read-outs stand apart in the source and are kept apart here. Where a SMILES comes first, the peptide text is derived from it. Bridges are numbered along the chain shown (N, C = ends). Where no end group is shown, it is not given here.

Experiments:
Male SD rats [1] = assay: Vasodepressor activity (change of blood pressure) in anesthetized rats; assay type: in vivo, rat
Method: (§1) Diuretic action of cCNP was measured in accordance with the method described in […] et al and Sudoh et al ([…]. et al., Biochem. Biophys. Res. Commun., 118, 131-139, 1984; Sudoh, […]., Minamino, N. and Matsuo, H. Nature, 322, 78-81, 1988). Male SD rats (weight 300-400 g) were anesthetized by intraperitoneally receiving 50 mg/kg pentobarbitol, and a tracheal cannula (PE-240, Cray Adams) was provided to secure an airway. A cannula for measuring the blood pressure (PE-50) was inserted into one of the femoral arteries, and Ringer solution was injected through a cannula (PE-10) inserted into the femoral venous, at a constant rate of 1.8 ml/hr. Urine was collected into a test tube through a bladder cannula of silastic tube (inside diameter 0.02 inch, outside diameter 0.037 inch, Dow Corning). The collection of urine was carried out for 15 min before the administration of the peptides, at 5 min intervals after the administration till 15 min, and then at appropriate time intervals. The effect of the peptides was measured by comparing the amount of the urine samples and the concentration of the electrolyte in the urine samples, as well as by the change of the blood pressure. In the above assay, a predetermined amount of cCNP was dissolved in 0.1N acetic acid, and neutralized with one tenth volume of 1.3M Tris solution. Then, the solution was diluted with 50 μl of a sterile physiological water, and administered through the cervical vein. […] In Table 2, diuretic and natriuretic responses are shown in terms of the amount of the urine, the percentages in the […] of the excretion of Na^+, K^+ and Cl^- (Means±S.E.M.), in which urine samples were collected separately over 15 min before and after the intravenous injection of the peptides to anesthetized rats. Three to six rats were used for each peptide. […] In a typical experiment, the blood pressure at the contract phase of heart was decreased by about 5% over a period of 30 min by the action of 30 μg/kg of cCNP. […] Biochem. Biophys. Res. Commun., 168, 863-870, 1990).

chicken rectum = tested on: chicken rectum
Method: Relaxant activity in chicken rectum was measured in accordance with the method of […] and Currie ([…]. and Matsuo, H., Biochem. Biophys. Res. Commun., 118, 131-139, 1984; Currie, […]., Cole, […]. and Needleman, P. Science, 221, 71-73, 1983). The values are averages of six repeats. […] Although cCNP lacked the tail sequence at the C-terminal which had been considered to be important for analog peptides in displaying biological activities such as diuretic action (Watanabe, T. X., Noda, Y., Chino […]. and Imai, M. Eur. J.

Male SD rats [2] = assay: Diuretic and natriuretic action in anesthetized rats (urine amount, electrolyte excretion); assay type: in vivo, rat; conditions: for excretion Cl- / excretion K+ / excretion Na+ / excretion urine: urine 15 min after versus before, Mean±S.E.M.
Method: as §1

[3] = 30 μg/kg intravenous, anesthetized rats
[4] = 90 μg/kg intravenous, anesthetized rats
[5] = 200 μg/kg intravenous, anesthetized rats
[6] = 3.0 μg/kg intravenous, anesthetized rats

## CC[C@H](C)[C@@H]1NC(=O)[C@H](CCCNC(=N)N)NC(=O)[C@H](CC(=O)O)NC(=O)[C@H](CC(C)C)NC(=O)[C@H](CCCCN)NC(=O)[C@H](C(C)C)NC(=O)CNC(=O)[C@H](Cc2ccccc2)NC(=O)[C@@H](NC(=O)[C@H](CO)NC(=O)[C@H](CCCNC(=N)N)NC(=O)[C@H](CO)NC(=O)[C@H](CC(C)C)NC(=O)CN)CSSC[C@@H](C(=O)O)NC(=O)CNC(=O)[C@H](CC(C)C)NC(=O)CNC(=O)[C@H](CO)NC(=O)[C@H](CCSC)NC(=O)[C@H](CO)NC(=O)CNC1=O [cCNP] (H-GLSRSCFGVKLDRIGSMSGLGC-OH; disulfide 6-22)
Male SD rats [1]; [3]
  decrease of blood pressure: 4.4 ± 1.9%
Male SD rats [1]; 30 μg/kg, over a period of 30 min, typical experiment, anesthetized rats
  decrease of the blood pressure at the contract phase of heart: about 5%
Male SD rats [1]; [4]
  decrease of blood pressure: 0.3 ± 2.0%
Male SD rats [1]; [5]
  decrease of blood pressure: 11.5 ± 1.5%
Male SD rats [1]; rats
  vasodepressor activity (in words): weak vasodepressor action; also recorded: vasodepressor activity; also recorded: increase dose dependently
Chicken rectum
  relative activity: 321
Chicken rectum; cCNP versus fANP-21
  relaxant activity higher than fANP-21 (fold): ~5 times
Chicken rectum; cCNP versus α-hANP
  relaxant activity higher than α-hANP (fold): about 2 times
Male SD rats [2]; [3]
  excretion Cl-: 171 ± 2%
  excretion K+: 145 ± 12%
  excretion Na+: 160 ± 9%
  excretion urine: 153 ± 32%
Male SD rats [2]; [4]
  excretion Cl-: 214 ± 5%
  excretion K+: 163 ± 02%
  excretion Na+: 193 ± 6%
  excretion urine: 261 ± 19%
Male SD rats [2]; [5]
  excretion Cl-: 338 ± 107%
  excretion K+: 174 ± 18%
  excretion Na+: 385 ± 50%
  excretion urine: 293 ± 50%
Male SD rats [2]; anesthetized rats, ratio to α-hANP
  diuretic and natriuretic actions compared to that of α-hANP: about 1/100
Male SD rats [2]; rats
  natriuretic action (in words): natriuretic action; also recorded: increase dose dependently

## α-hANP: A-type (atrial) natriuretic peptide used as comparison; activity set to 100 (SLRRSSCFGGRMDRIGAQSGLGCNSFRY; ends and bridges not checked; cysteine pairing not given here; UniProt P01160 124-151, looked up) [reference compound]
Male SD rats [1]; [6]
  decrease of blood pressure: 9.0 ± 2.5%
Chicken rectum; relaxant activity of equimolar amount of peptides, activity of hANP = 100, averages of six repeats
  relative activity: 100
Male SD rats [2]; [6]
  excretion Cl-: 362 + 34%
  excretion K+: 220 ± 22%
  excretion Na+: 461 ± 41%
  excretion urine: 414 ± 46%
